Active and inactive are the calls of the source.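 Rule for the calls: active = compounds giving half or more protection of infected cells from virus-caused growth loss, again on retest; inactive = the rest.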
Tested on: CEM cells HIV-1 protection, formazan growth assay
Experiment: NCI AIDS Antiviral Assay
Details: for IC50: measured here: growth of uninfected CEM cells
Description: The ability of compounds to protect human CEM cells from HIV-1 infection is measured as a screen for new compounds capable of inhibiting the HIV virus. Five concentrations of drug were tested on uninfected and infected cells and cell growth was measured using a soluble formazan assay. […] Compounds that provided at least 50% protection were retested. Compounds that provided at least 50% protection on retest were listed as moderately active. Compounds that reproducibly provided 100% protection were listed as confirmed active. […] Note that the inability to provide protection could be due to toxicity.

Row | Structure (SMILES) | EC50 | IC50 | outcome
1 | CN1c2ccc(Cl)cc2C2(C(=O)NN)C(C(=O)NN)N(C3CCCCC3)C(=O)C12N (centres undefined) | > 87.1 µM | > 87.1 µM | –
2 | CSc1ccc(NC(=S)NN(C)C)cc1 | > 200 µM | 93.3 µM | –
3 | CC(=O)/C(=C/n1c(=S)sc2ccccc21)C(=O)Nc1ccccc1 | > 200 µM | 138 µM | –
4 | CC(=O)CCC(=O)CC(O)(C(F)(F)F)C(F)(F)F | > 200 µM | 33.1 µM | –
5 | COc1nc2ncc([C@@H](O)[C@H](O)CO)nc2c(=O)[nH]1 | > 200 µM | > 200 µM | –
6 | COc1cc(COC(=O)N2CSCC2C(=O)O)c([N+](=O)[O-])cc1OC (centres undefined) | > 676 µM | > 676 µM | –
7 | COc1ccc(C(C2=C(O)CC(C)OC2=O)C2=C(O)CC(C)OC2=O)cc1 (centres undefined) | > 661 µM | 427 µM | –
8 | C[Si](C)(C)/C(Br)=C\CCN1C(=O)CCC1O (centres undefined) | – | – | inactive
9 | COc1cc(C)c2c(=O)c3c(oc2c1)C(=O)c1c(OC)c(OC)cc(OC)c1C3=O | – | – | inactive
10 | O=C(O)CCC(=O)NC(c1ccccc1)(c1ccccc1)c1ccccc1 | > 200 µM | > 200 µM | –
11 | O=C(CC(=O)c1ccccc1NC1=Cc2ccccc2C(=O)C1=O)C(=O)NC1=C(Cl)C(=O)c2ccccc2C1=O | > 18.2 µM | 3.24 µM | –
12 | O=C1NCN(C2CCCCC2)CN1 | > 200 µM | > 200 µM | –
13 | CCCC1C[C@H]2CCCCN2[C@H]2CCCN12 (some centres undefined) | > 1120 µM | 550 µM | –
14 | O=C(O)Cc1sc(=O)[nH]c1O | > 200 µM | > 200 µM | –
15 | C[C@H]1Oc2c3c(c4ccc(=O)oc4c2C(=O)[C@@H]1C)OC(C)(C)C=C3 | > 200 µM | > 200 µM | –
16 | Cc1ccccc1NC(=O)CC(=O)n1nc(-c2ccccc2)c(N=Nc2ccc([N+](=O)[O-])cc2)c1-c1ccccc1 | > 25.1 µM | 16.2 µM | –
17 | NCCCS(=O)(=O)O | > 200 µM | > 200 µM | –
18 | Cc1ccccc1NC(=O)Cc1csc(N=Nc2c(O)[nH]c3ccccc23)n1 | > 200 µM | > 200 µM | –
19 | O=C1OC2(O)c3ccccc3C(=O)N2N2CCCCC12 (centres undefined) | > 646 µM | > 646 µM | –
20 | Cc1cc2c3ccccc3nc2c2cc[nH]c(C)c12 | > 110 µM | 5.25 µM | –
21 | Cc1ccc(S(=O)(=O)N2C[C@H](O)C[C@H]2C(=O)O)cc1 | – | – | inactive
22 | CCC(COCC(CC)C(=O)O)C(=O)O (centres undefined) | – | – | inactive

Row | Structure (SMILES) | EC50 | IC50 | outcome
23 | COC1(OC)CC2C(=O)CCCC21OC(C)=O (centres undefined) | > 1020 µM | 22.4 µM | –
24 | CC(C)=CCN1CC(C)C(=O)Nc2cc(Cl)ccc21 (centres undefined) | > 132 µM | 28.2 µM | –
25 | Cn1nc(-c2ccccc2)c(C(=O)/C=C/c2ccccc2)c(N2CCCCC2)c1=O | > 24 µM | > 24 µM | –
26 | CN(CCC(N)CC(=O)NC1C=CC(n2ccc(N)nc2=O)OC1C(=O)O)C(=N)N (centres undefined) | > 200 µM | 31.6 µM | inactive
27 | N=C(N)SCc1ccc(Cl)cc1Cl (tested in a mixture with another compound) | > 100 µM | 60.3 µM | –
28 | COc1cc(O)c2c(c1O)C(=O)c1cc(C)ncc1C2=O | – | – | inactive
29 | CC1OC(n2cc(C(F)(F)F)c(=O)[nH]c2=O)C=CC1O (centres undefined) | > 851 µM | 148 µM | –
30 | COc1ccc(/C=c2/s/c(=C(\C#N)c3nc4ccccc4[nH]3)n(-c3ccccc3)c2=O)cc1 | > 200 µM | 37.2 µM | –
31 | Cc1cc(O)c(/C=N/C(=S)Nc2cc(Cl)ccc2Cl)c(=O)o1 | > 50.1 µM | > 50.1 µM | –
32 | COc1ccccc1NC(=O)C1=C(C)NC(C)=C(C(=O)Nc2ccccc2OC)C1c1ccc(N(C)C)cc1 | > 42.7 µM | 29.5 µM | –
33 | COc1ccc(/C=N/NS(=O)(=O)c2ccc(/C=C3\NC(=O)N(C)C3=O)cc2)cc1 | > 200 µM | > 200 µM | –
34 | COc1ccc2c(c1)C1C(CO2)C(c2ccccc2)=NN1c1ccccc1 (centres undefined) | > 20.4 µM | > 20.4 µM | –
35 | CN(C)c1cccc2c(S(=O)(=O)NCCCCCCCCCCCCNS(=O)(=O)c3cccc4c(N(C)C)cccc34)cccc12 | > 200 µM | – | –
36 | C=CC1C(C[C@@H]2c3cc(O)c(O)cc3CCN2C(C)=O)C(C(=O)OC)=CO[C@H]1OC1OC(CO)C(O)C(O)C1O (some centres undefined) | – | – | inactive
37 | COc1ccc(O)c(/C=N/NC(=S)N2CCCCC2)c1 | > 200 µM | 8.13 µM | –
38 | O=C(O)CSC(=S)CCCCCCCCCCC(=S)SCC(=O)O | > 120 µM | > 120 µM | –
39 | CC1(C)OC2=C(CC1Br)C(=O)C(=O)c1ccccc12 (centres undefined) | > 2 µM | 1.26 µM | –
40 | O=C(COc1ccc(Cl)cc1)N1N=C(c2ccc(Cl)cc2)CC1(O)c1ccccc1 (centres undefined) | > 16.2 µM | > 16.2 µM | –
41 | CN(CC(=O)Nc1ccccc1C(=O)O)c1ccccc1 | > 200 µM | 69.2 µM | –
42 | Nc1nn2cc3c(nc2c1N=Nc1ccccc1)CCCCC3 | > 200 µM | > 200 µM | –
43 | O=C(CCCCCCCCC(=O)N1C(=O)CC(=O)N(c2ccccc2)C1=S)N1C(=O)CC(=O)N(c2ccccc2)C1=S | > 200 µM | 123 µM | –
44 | Cc1nc2ccccc2n1C(=O)c1c(F)c(F)c(F)c(F)c1F | > 200 µM | 33.9 µM | –

Row | Structure (SMILES) | EC50 | IC50 | outcome
45 | O=c1ccc2cc(O)ccc2o1 | > 200 µM | > 200 µM | –
46 | COc1cc2oc(-c3ccc(O)cc3)cc(=O)c2c(OC)c1OC | 97.7 µM | > 200 µM | –
47 | CCOC(=O)N1CCN(c2nc(C)n(-c3ccccc3)c(=S)c2C#N)CC1 | > 200 µM | > 200 µM | –
48 | CN1CCCCC(C(O)(c2ccccc2)c2ccccc2)C1=O (centres undefined) | > 115 µM | 0.363 µM | –
49 | CCOC(=O)c1ccc(N2C(=O)c3cccc4cccc(c34)C2=O)cc1 | > 100 µM | > 100 µM | –
50 | c1cc(SSc2ccncc2)ccn1 | > 200 µM | 25.1 µM | –
51 | CNC(=O)Oc1c(Cl)cccc1SSc1cccc(Cl)c1OC(=O)NC | > 200 µM | 19.5 µM | –
52 | O=S(=O)(O)c1ccc(OCCCCCCCCCCOc2ccc(S(=O)(=O)O)cc2)cc1 | > 25.7 µM | > 25.7 µM | –
53 | N#CC1(N2CCCC2)CCC2(CC1)OCCO2 | – | – | inactive
54 | O=[N+]([O-])c1ccc(Sc2c3ccccc3nc3ccccc23)cc1 | > 4.37 µM | > 4.37 µM | –
55 | C#CCNC(=O)NC(CCCNC(=O)OCc1ccccc1)C(=O)OCc1ccccc1 (centres undefined) | > 83.2 µM | > 83.2 µM | –
56 | CC(=O)O[C@]1(C(C)=O)CC[C@H]2[C@@H]3C[C@H](C)C4=CC(=O)C=C[C@]4(C)[C@@]3(F)[C@@H](O)C[C@@]21C | – | – | inactive
57 | Cc1cn(C2CCN(c3ccccc3)O2)c(=O)[nH]c1=O (centres undefined) | > 200 µM | > 200 µM | –
58 | O=S(=O)(c1ccccc1)C1(Sc2ccccc2)CC(Br)[C@@H](Br)C1 (some centres undefined) | > 15.1 µM | > 15.1 µM | –
59 | Cc1ccc2c(c1)c1ccc3c(c1n2C)C(=O)C=CC3=O | > 100 µM | 2.45 µM | –
60 | COc1ccc(-c2c(C#N)c(NC(=S)NC(=O)c3ccccc3)nc3c2CCCC3)cc1OC | > 200 µM | 115 µM | –
61 | CCC(O)(Cc1ccccc1)C(C(=O)O)c1ccccc1 (centres undefined) | > 457 µM | 339 µM | –
62 | c1ccc(CCN(CCc2ccccn2)CCc2ccccn2)cc1 | – | – | inactive
63 | CCOC(=O)C1(N=O)CCCCC1=O (centres undefined) | > 200 µM | > 200 µM | –
64 | COC(=O)/C=C(C)/C=C/c1cc(C(C)=O)c(C)o1 | > 145 µM | 102 µM | –
65 | CSc1n[n+]2c(s1)SCCC2 | > 759 µM | 58.9 µM | –
66 | CCOC(=O)[C@@]12C[C@](/C=C/OC)(O[Si](C)(C)C)[C@@]13c1cc(OC)c(OC)cc1CCN3C(=O)C2O (some centres undefined) | > 200 µM | > 200 µM | –

Row | Structure (SMILES) | EC50 | IC50 | outcome
67 | [Cl-].[Cl-].[Pt+4].[S-]c1ncccn1.[S-]c1ncccn1 | > 100 µM | 0.355 µM | –
68 | S=C1NCCO1 | > 200 µM | 105 µM | –
69 | Cc1ccc(NC=O)c(-c2c(N)[nH]c(=S)[nH]c2=O)c1 | > 200 µM | 148 µM | –
70 | COc1cc2c(oc(=O)c3c4oc([Si](C)(C)C)cc4cc(OC)c23)c2cccc(O)c12 | > 1.74 µM | > 1.74 µM | –
71 | COC1/C=C\OC2(C)Oc3c(C)c(O)c4c(O)c(c(C=Nc5ccc6ccccc6c5)c(O)c4c3C2=O)NC(=O)/C(C)=C\C=C/C(C)C(O)C(C)C(O)C(C)C(OC(C)=O)C1C (centres undefined) | > 200 µM | 35.5 µM | –
72 | N#C/C(=C\N1CC(=O)NC1=S)C(N)=O | > 200 µM | > 200 µM | –
73 | CN(C)N=Nc1ccc2[nH]c(=O)[nH]c2c1 | > 200 µM | 102 µM | –
74 | CC(=O)c1c2c(cc3c1CC1(Cc4cc5c(cc4C1)CCCC5)C3)CCCC2 | > 200 µM | 34.7 µM | –
75 | Cc1cc(S(=O)(=O)Nc2nc(N)nc(N3N=CCC3C)n2)c(S)cc1Cl (centres undefined) | 55 µM | > 200 µM | –
76 | N#Cc1nc(CCCCCN2C(=O)c3ccccc3C2=O)oc1N | > 200 µM | > 200 µM | –
77 | O=C(O)/C(=C/C=C/c1ccccc1)c1csc(-c2nc(/C(=C\C=C\c3ccccc3)C(=O)O)cs2)n1 | > 182 µM | > 100 µM | –
78 | c1cnc2c(c1)Nc1cnncc1S2 | > 200 µM | > 200 µM | –
79 | COc1cccc(/C=c2\[nH]c(=O)/c(=C/c3cccc(OC)c3OC)[nH]c2=O)c1OC | > 9.12 µM | > 9.12 µM | –
80 | O=C(Nc1ccccn1)/C(=C\C(=O)c1ccc(Cl)cc1)Nc1ccccc1 | > 200 µM | 174 µM | –
81 | CCCCCCOCC(=O)O | > 200 µM | > 200 µM | –
82 | CC1(O)Cc2c(O)c3c(c(O)c2CC1O)C(=O)C=CC3=O (centres undefined) | > 12.9 µM | 1.32 µM | –
83 | COC(=O)/C=C/C=C/c1ccc2c(c1OC)C(=O)c1ccccc1C2=O | – | – | inactive
84 | CC(C)(C)OC(=O)NC(Cc1ccc([N+](=O)[O-])cc1)C(=O)NC(CCCCNC(=O)OCc1ccccc1)C(=O)ON1C(=O)CCC1=O (centres undefined) | > 200 µM | 56.2 µM | –
85 | O=C(NN=C1CCCCC1)NN=C1CCCCC1 | > 100 µM | > 100 µM | –
86 | COc1cc2ccc3c4ccccc4cnc3c2cc1OC | > 89.1 µM | > 89.1 µM | –
87 | O=C1Nc2nccnc2C(=O)N2CCC[C@@H]12 | > 200 µM | > 200 µM | –
